Entries after “also recorded” stand apart in the source; their conditions may differ. Marks after values point to notes of the source that are not given here.
Legend:
human TF = molecular target: T1, human TF (Homo sapiens, UniProt P13726); assay: Tisotumab binding to HNSCC cell lines by flow cytometry; details: 2 μg/ml
T1 construct: Three VU-SCC cells lines with various levels of TF expression were selected for additional analysis; endogenous in cells; host or cells: HNSCC cell lines VU-SCC-OE, VU-SCC-078, VU-SCC-120
Procedure: Methods: Three VU-SCC cells lines with various levels of TF expression were selected for additional analysis. It was determined that VU-SCC-OE had TF expression levels similar to that of non-cancerous fibroblasts and VU-SCC-078 had slightly higher expression levels of TF compared to VU-SCC-OE; VU-SCC-120 was a cell line with high levels of TF expression (FIG. 2). These three cell lines were cultured and subsequently assayed for tisotumab binding. Cells were incubated with the anti-human TF monoclonal antibody, (tisotumab, 2 μg/ml, IgG1-1015-011, Genmab) or an isotype control IgG (Genmab IgG1-b12). The PE-conjugated goat (Fab′)2 anti-human IgG secondary antibody (1:50 Jackson, 109-116-098) was applied and the cells were analyzed by flow cytometry.

HNSCC cell lines = assay: Cell Titer-Blue cytotoxicity assay in HNSCC cell lines; format: cell-based, human
Procedure: Methods: Cells were seeded in 96-wells plates on day 0 (1000-6000 cells/well, depending on the cell line). After overnight culturing, tisotumab vedotin or the negative control isotype IgG1-vedotin (IgG1-c-b12-vc monomethyl auristatin E (MMAE)) was added in increasing concentrations to the different wells. The relative number of viable cells was assessed on day 5 using a Cell Titer-Blue assay (Promega, Leiden, The Netherlands, G8080) according to the protocol from the manufacturer and fluorescence was measured using the GloMax®-Multi Detection System (Promega). Staurosporine (5 μM, Sigma, UCN-01 or 56942) was used as a positive control to induce maximum cell death, and untreated cells were also used as a negative control. After subtraction of background (medium only), the percentages of viable cells were calculated using the following formula: % viable cells=((mean fluorescence test samples−mean fluorescence staurosporine sample)/(mean fluorescence untreated sample−mean fluorescence staurosporine sample))*100. Graphs represent non-linear regression curves of log-transformed antibody concentrations, using Graphpad Prism version 9.1.0 (GraphPad Software, San Diego, CA).

primary keratinocytes = assay: Cell Titer-Blue cytotoxicity assay in primary keratinocytes; format: cell-based, human; details: low TF expression
Procedure: Keratinocytes were cultured in serum-free Keratinocyte medium (KSFM, Gibco, 17005-034) supplemented with 0.1% bovine serum albumin (BSA, Biovision), recombinant epidermal growth factor (EGF) (Gibco, 10450-013) and bovine pituitary extract (Gibco, 13028-014). HNSCC cell lines were cultured in Dulbecco's Modified Eagle's Medium (DMEM), containing 5% fetal bovine serum (FBS, Gibco, 10270-106) and 2 mM L-glutamine (Lonza, BE-17-605E). The FaDu cell line was purchased from the ATCC. […]
Methods: Cells were seeded in 96-wells plates on day 0 (1000-6000 cells/well, depending on the cell line). […] The relative number of viable cells was assessed on day 5 using a Cell Titer-Blue assay (Promega, Leiden, The Netherlands, G8080) according to the protocol from the manufacturer and fluorescence was measured using the GloMax®-Multi Detection System (Promega). […] After subtraction of background (medium only), the percentages of viable cells were calculated using the following formula: % viable cells=((mean fluorescence test samples−mean fluorescence staurosporine sample)/(mean fluorescence untreated sample−mean fluorescence staurosporine sample))*100. […]

FaDu tumor = assay: TV monotherapy in FaDu xenograft mice; format: in vivo, nude mice
Procedure: (§1) Nude mice (female, athymic nu/nu, age 6-8 weeks old, from Envigo, Horst, The Netherlands), were kept in filter top cages under sterile conditions under standardized environmental conditions. The HNSCC cell lines FaDu, VU-SCC-OE or VU-SCC-040 were subcutaneously injected in both flanks (2×10^6 cells per flank). The implanted tumor cells were allowed to grow to an average size of 100 mm^3 (range 40-180 mm^3). The mice were treated intraperitoneally (ip) with tisotumab vedotin or an isotype control (IgG1-b12-c-vcMMAE) (FIG. 6). […] Tumor volume was measured with electronic calipers (V=(L×W×H)×0.5 where V=volume, L=length, W=width, H=height) and calculated as mean of tumor(s) per mouse. Tumors with a start volume below 40 mm^3 and no signs of growth were excluded from the analysis. Tumors from un-treated tumor bearing mice were harvested and embedded in paraffin for analysis of TF expression using IHC analysis as described in the preceding examples. TF expression was detected using anti-CD142-FITC or isotype control (IgG1-FITC) with rabbit anti-FITC (Zymed) and BrightVision Immunohistochemistry (IHC) Detection Kit and visualized with DAB counterstained with Haematoxylin.
(§2) Nude mice were injected with HNSCC cells and xenografts were established as described above in Example 3A. Xenograft mice (5 mice with 8-10 tumors per group) were treated with PBS, 2 and 4 mg/kg tisotumab vedotin, or 4 mg/kg isotype IgG1-vedotin on days 0, 7 and 13 (FaDu) or on days 0, 7 and 14 (VU-SCC-OE and VU-SCC-040) (FIG. 6). Tumor volume was measured as described in the preceding example. Data analysis was performed using Graph Pad Prism version 9.1.0 (GraphPad Software, San Diego, CA). Data are depicted as mean±SD or mean±SEM. Statistical differences were determined using a Kruskal-Wallis test with multiple comparison tests (>2 groups). Improved overall survival was assessed using the Kaplan-Meier method and differences between the groups was assessed by the Log-rank test (Mantel-Cox). p-values<0.05 were considered significant (*p<0.05, **p<0.01,***p<0.001, **** p<0.0001, ns=not significant).

VU-SCC-OE tumor = assay: TV monotherapy in VU-SCC-OE xenograft mice; format: in vivo, nude mice; details: days 0, 7, 14
Procedure: as §1
as §2, with “Xenograft mice (5 mice with 8-10 tumors per group) were treated with PBS, 2 and 4 mg/kg tisotumab vedotin, or 4 mg/kg isotype IgG1-vedotin on days 0, 7 and 13 (FaDu) or on days 0, 7 and 14 (VU-SCC-OE and VU-SCC-040) (FIG. 6).” left out

VU-SCC-040 tumor = assay: TV monotherapy in VU-SCC-040 xenograft mice; format: in vivo, nude mice
Procedure: as §1
as §2, with “Xenograft mice (5 mice with 8-10 tumors per group) were treated with PBS, 2 and 4 mg/kg tisotumab vedotin, or 4 mg/kg isotype IgG1-vedotin on days 0, 7 and 13 (FaDu) or on days 0, 7 and 14 (VU-SCC-OE and VU-SCC-040) (FIG. 6).” left out

FaDu xenograft [1] = assay: TV combined with chemoradiotherapy (CRT) in FaDu xenograft mice; format: in vivo, nude mice
Procedure: (§3) Methods: FaDu xenografts were established in nude mice (5-6 mice/group) as described above in Example 3.
(§4) FaDu xenograft mice were treated 24 hour hours prior to CRT (CRT was administered on day 1 and 11) with TV or the isotype control, which was administered on day 0 and 10. VU-SCC-OE xenograft mice were treated 24 hour hours prior to CRT (CRT was administered on day 1 and 8) with TV or the isotype (IgG1-vedotin) control, which was administered on day 0 and 7. For mice receiving CRT, whole body irradiation (2 Gy; Varian TrueBeam™ Linear Accelerator) was applied approximately 4 hours after administering cisplatin (CDDP, 3 mg/kg). Tumor volume was measured as described above, and statistical analysis was performed on the collected data as also described above.

VU-SCC-OE xenograft = assay: TV combined with chemoradiotherapy (CRT) in VU-SCC-OE xenograft mice; format: in vivo, nude mice
Procedure: as §3, §4

FaDu xenograft [2] = assay: TV combined with radiotherapy (RT) in FaDu xenograft mice; format: in vivo, nude mice; details: for Median survival [days]: end of experiment day 112; for Range Survival [days]: end of the experiment is day 112
Procedure: FaDu xenografts were established in nude mice as described in Example 3. […] For mice subjected to RT, 2 Gy whole body radiotherapy was administered at day 1.

FaDu xenograft [3] = assay: TV combined with cisplatin (CDDP) in FaDu xenograft mice; details: 2 mg/kg TV + cisplatin 3 mg/kg ip
Procedure: FaDu xenografts were established in nude mice (6-7 mice/group) as described above in Example 4. Mice were treated with the antibodies on day 0 and 7 and/or on day 1 and 8 with 3 mg/kg intraperitoneal cisplatin (CDDP) chemotherapy (CT) (FIG. 6). TV or control IgG-vedotin (IgG1-V) was administered at day 0. For mice subjected to chemotherapy, cisplatin was administered at day 1. A minimum of 8 tumors were included per group.

T1 sequence (P13726 33-295): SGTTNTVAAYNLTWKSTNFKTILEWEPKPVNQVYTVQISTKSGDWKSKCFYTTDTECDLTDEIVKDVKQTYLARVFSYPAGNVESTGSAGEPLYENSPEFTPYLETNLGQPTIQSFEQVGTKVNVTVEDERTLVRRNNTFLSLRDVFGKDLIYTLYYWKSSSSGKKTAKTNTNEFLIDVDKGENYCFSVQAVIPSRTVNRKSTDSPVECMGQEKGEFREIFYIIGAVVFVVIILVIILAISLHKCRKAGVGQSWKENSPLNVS

Q: How did the “binding to HNSCC cells (flow cytometry)” value (human TF; VU-SCC-078, intermediate expression of TF) turn out when tisotumab was run?
A: bound robustly

Q: What about the “binding to HNSCC cells (flow cytometry)” value (human TF; VU-SCC-120, high levels of TF) of the same substance?
A: bound robustly

Q: And the “binding to HNSCC cells (flow cytometry)” value (human TF; VU-SCC-OE, lower levels of TF expression)?
A: still capable of binding

Q: How did the “mean IC50 values” (HNSCC cell lines; HNSCC cell lines with intermediate and high levels of TF expression) turn out when tisotumab vedotin was run?
A: 2.5 to 7 ng/mL

Q: And the “average IC50” value (HNSCC cell lines; VU-SCC-OE, low TF expression)?
A: above 0.025 μg/ml

Q: What about the “killing of HNSCC cell lines (percent viable cells)” value (HNSCC cell lines; increasing concentrations, viable cells on day 5) of the same substance?
A: efficient and dose-dependent killing

Q: What about the “average IC50” value (primary keratinocytes) of the same substance?
A: above 0.025 μg/ml

Q: And the “tumor growth compared to control groups” value (FaDu tumor; 2 mg/kg ip, days 0, 7, 13)?
A: significant inhibition of tumor growth

Q: What about the tumor regression (FaDu tumor; 2 mg/kg ip, days 0, 7, 13) of the same substance?
A: tumor regression was observed after 3 treatments

Q: What about the “time after start of initial treatment from which tumor regrowth was visible” value (FaDu tumor; 2 mg/kg, last treatment on day 13) of the same substance?
A: ≥ 30 days

Q: And the tumor regression (FaDu tumor; 4 mg/kg ip, after the first treatment)?
A: significant and persistent tumor regression

Q: What about the “recurrence of tumor growth until end of experiment (day 76)” value (FaDu tumor; 4 mg/kg ip, days 0, 7, 13) of the same substance?
A: without recurrence of tumor growth

Q: And the “time to complete tumor regression in all mice” value (FaDu tumor; 4 mg/kg ip, days 0, 7, 13)?
A: ≤ 30 days

Q: And the “tumor size on day 7 compared to isotype control or PBS” value (FaDu tumor; tisotumab vedotin treatment groups, day 7)?
A: considerably lower tumor size

Q: And the tumor growth (VU-SCC-OE tumor; 1 mg/kg)?
A: rapid tumor growth

Q: What about the tumor growth (VU-SCC-OE tumor; 2 mg/kg) of the same substance?
A: inhibition of tumor growth

Q: What about the tumor growth (VU-SCC-OE tumor; 4 mg/kg TV) of the same substance?
A: inhibition of tumor growth

Q: And the “tumor growth compared to control groups” value (VU-SCC-040 tumor; 1 mg/kg monotherapy)?
A: did not inhibit tumor growth

Q: And the “tumor growth compared to control groups” value (VU-SCC-040 tumor; 2 mg/kg)?
A: inhibition of tumor growth was observed

Q: What about the “tumor growth compared to control groups” value (VU-SCC-040 tumor; 4 mg/kg) of the same substance?
A: inhibition of tumor growth was observed

Q: And the “tumor growth at day 7 compared to isotype control” value (VU-SCC-040 tumor; 4 mg/kg, after 1 treatment)?
A: reduced tumor growth

Q: And the “overall survival (Kaplan-Meier) compared to control groups, CRT or TV alone” value (FaDu xenograft [1]; 2 mg/kg TV + CRT)?
A: significant increase in overall survival

Q: And the “tumor size at day 9 after first treatment compared to IgG1-vedotin + CRT” value (FaDu xenograft [1]; 2 mg/kg TV + CRT)?
A: significant reduction in tumor size

Q: What about the “tumor growth compared to IgG1-vedotin control group” value (FaDu xenograft [1]; 2 mg/kg TV alone, day 0 and 10) of the same substance?
A: reduced tumor growth

Q: What about the “survival compared to control groups or CRT or TV alone” value (VU-SCC-OE xenograft; 2 mg/kg TV + CRT) of the same substance?
A: significantly prolonged survival

Q: What about the tumor regression (VU-SCC-OE xenograft; 2 mg/kg TV + CRT) of the same substance?
A: induced tumor regression

Q: What about the “tumor growth compared to control groups (PBS and IgG1-vedotin)” value (VU-SCC-OE xenograft; 2 mg/kg TV alone) of the same substance?
A: some inhibition of tumor growth

Q: What about the “survival compared to control treatment (PBS or IgG-V)” value (FaDu xenograft [2]; 1 mg/kg TV alone) of the same substance?
A: did not prolong survival

Q: And the “survival time compared to RT alone” value (FaDu xenograft [2]; 2 mg/kg TV + RT, p<0.001)?
A: significantly better survival time

Q: What about the “tumor volume on day 7” value (FaDu xenograft [2]; TV 1 mg/kg day 0 + RT 2 Gy day 1) of the same substance?
A: Decreased tumor volume

Q: What about the “tumor burden on day 7” value (FaDu xenograft [2]; TV 2 mg/kg alone, day 0) of the same substance?
A: lowest tumor burdens

Q: What about the “tumor burden / tumor volume on day 7” value (FaDu xenograft [2]; TV 2 mg/kg day 0 + RT 2 Gy day 1, listed as TV) of the same substance?
A: lowest tumor burdens; also recorded: Decreased tumor volume

Q: What about the “Median survival” value (FaDu xenograft [2]; hTV 1 mg/kg) of the same substance?
A: 10 days

Q: And the “Range Survival” value (FaDu xenograft [2]; hTV 1 mg/kg)?
A: 8 to 16 days

Q: And the “Median survival” value (FaDu xenograft [2]; hTV 1 mg/kg + RT (2 Gy))?
A: 21 days

Q: What about the “Range Survival” value (FaDu xenograft [2]; hTV 1 mg/kg + RT (2 Gy)) of the same substance?
A: 14 to 21 days

Q: What about the “Median survival” value (FaDu xenograft [2]; hTV 2 mg/kg) of the same substance?
A: 69.5 days

Q: What about the “Median survival [days]” value (FaDu xenograft [2]; hTV 2 mg/kg + RT (2 Gy), listed as TV) of the same substance?
A: median not reached

Q: And the “Median survival [days]” value (FaDu xenograft [2]; hTV 2 mg/kg + RT (2 Gy), listed as hTV)?
A: Undefined

Q: What about the “Range Survival [days]” value (FaDu xenograft [2]; hTV 2 mg/kg + RT (2 Gy)) of the same substance?
A: 21-112* days

Q: And the “Range Survival [days]” value (FaDu xenograft [2]; hTV 2 mg/kg)?
A: 28-112* days

Q: And the “survival compared to either treatment alone” value (FaDu xenograft [3])?
A: improved survival

Q: What about the “tumor load on day 7 compared to either treatment alone” value (FaDu xenograft [3]) of the same substance?
A: significantly reduced tumor load
